We go through two compounds from patent publication US20120088803A1, “CONTROL AGENT FOR SOFT ROT AND CONTROL METHOD FOR THE SAME” (Ishihara Sangyo Kaisha, Ltd, priority 2009, published 2012).

Where “and” joins values, the source holds several entries; their conditions need not be identical. Equal values may be shown once.

In assay [1] the test system is Chinese cabbage soft rot. As to the kind of experiment: Test for disease control of Chinese cabbage, field (Example 1 / Comparative Example 1). It is filed as in vivo, Erwinia carotovora. Set-up: key to Disease incidence rate: % of examined plants that are diseased; key to Disease control value: (1 − severity treated/severity untreated) × 100; key to Disease severity: Σ(plants per class × index 0–4)/(plants examined × 4) × 100. The note with it: for Disease incidence rate / Disease severity / Disease control value: 63 days; for Disease control value: vs untreated plot; for Control effect on Chinese cabbage soft rot (in words): Table 1 test, moderate incidence conditions, fluazinam 250 g ai/10 a on soil, streptomycin 1/1000 foliage spraying. The procedure:
Preparation was performed using 500 g/L of 3-chloro-N-(3-chloro-5-trifluoromethyl-2-pyridyl)-alpha,alpha,alpha-trifluoro-2,6-dinit ro-p-toluidine (fluazinam (common name), Frowncide SC (trade name), manufactured by Ishihara Sangyo Kaisha, Ltd.) such that the amount of the active ingredient was 250 g ai/10 a (500 mL product/10 a), and the amount of dilution water was 150 L/10 a.
The spray solution prepared in the above was sprayed onto cultivation soil in a field such that the spraying amount was 0.25 g/m^2 (150 L/10 a), and thereafter, a mulch-sheet for agricultural use was spreaded on the soil. After planting holes for settlement (diameter: about 5 cm) were made, seedlings of Chinese cabbage (cultivar: Musou) grown for 4 weeks in a cell tray (128 holes/nursery box) were planted such that 30 seedlings were planted in one test plot having an area of 6 m^2 with three replications.
(§1) Preparation was performed by diluting streptomycin (Mycin 20 wettable powder (trade name), manufactured by Hokko Chemical Industry Co., Ltd.) with water to 1/1000.
In a field covered with a mulch-sheet for agricultural use, seedlings of Chinese cabbage (cultivar: Musou) grown in a cell tray were planted, in the same manner as in Example 1, and foliage application was performed by spraying the spray solution of streptomycin prepared in (1) (spraying amount per application: 200 L/10 a) twice (39 days and 47 days after the planting of the seedlings).
The degree of disease incidence was examined for all the plants in each test plot 63 days after the start of the test, and the disease incidence rate, the disease severity, and the disease control value were calculated according to the following equations, and the test results are shown in Table 1.
(§2) (Disease incidence rate)=[(number of diseased plants)/(number of plants examined)]*100
(§3) (Disease severity)={S [(number of diseased plants in each class into which the plants are classified according to the degree of disease)*(disease index)]/[(number of plants examined)*4]}*100
(§4) (Disease control value)={1-[(Disease severity in treated plot)/(Disease severity in untreated plot)]}*100
(§5) Incidentally, the evaluation criteria for the disease index are as follows. • (Disease index) • 0: No lesion • 1: Lesions appear only in part of outer leaves (shipment can be made). • 2: Lesions appear in outer leaves and part of head leaves (the damaged part is removed and shipment as a small size plant can be made, rated Grade B). • 3: Lesions appear in most head leaves or more (shipment cannot be made). • 4: Lesions appear in the entire plant and the plant dies.

The subject of assay [2] is Erwinia carotovora (potato Erwinia carotovora). As to the kind of experiment: Test for growth inhibition of potato Erwinia carotovora (PSA medium plate). Format: cell-based. Conditions: for Growing state of Erwinia carotovora (formed colonies): PSA medium, 25 degrees C., 4 days, two plates per cell. The procedure:
Reference test example: Test for growth inhibition of potato Erwinia carotovora
A test for growth inhibition of Erwinia carotovora in the case of direct application of the control agent to Erwinia carotovora was performed. To previously melted PSA medium (55 degrees C.), a predetermined amount of a pesticide 3-chloro-N-(3-chloro-5-trifluoromethyl-2-pyridyl)-alpha,alpha,alpha-trifluoro-2,6-dinit ro-p-toluidine (fluazinam, Frowncide SC (trade name), manufactured by Ishihara Sangyo Kaisha, Ltd.), ethaboxam wettable powder (Ethaboxam, Gardian (trade name), manufactured by LG Chemical), or streptomycin (Mycin wettable powder (trade name), manufactured by Hokko Chemical Industry Co., Ltd.) and a suspension of Erwinia carotovora (potato Erwinia carotovora) were added and the resulting mixture was stirred well, and then, poured in a plate. Then, the plate was cultured at 25 degrees C. for 4 days, and the growing state of Erwinia carotovora was examined. Thereafter, the formed colonies were examined according to the following three criteria. • +: Equal to the colonies of the untreated group • Plus or minus: Apparently less than the colonies of the untreated group • −: Almost no colonies

For assay [3], the system named is Chinese cabbage soft rot. As to the kind of experiment: Test for disease control of Chinese cabbage, field (Example 4 / Comparative example 3). Format: in vivo, Erwinia carotovora. More on the design: key to Disease incidence rate: % of examined plants diseased; key to Disease control value: (1 − treated/untreated severity)×100; 100 = full control; key to Disease severity: severity index 0–100 from disease classes 0–4 (sum/(plants×4)×100). The note with it: for Disease incidence rate / Disease severity / Disease control value: 64 days; for Disease control value: vs untreated plot.
Excerpt: as §2, §3, §4, §5
Preparation was performed using 500 g/L of 3-chloro-N-(3-chloro-5-trifluoromethyl-2-pyridyl)-alpha,alpha,alpha-trifluoro-2,6-dinit ro-p-toluidine (fluazinam, Frowncide SC (trade name), manufactured by Ishihara Sangyo Kaisha, Ltd.) such that the amount of the active ingredient was 62.5 g ai/10 a (125 mL product/10 a), 125 g ai/10 a (250 mL product/10 a), and 250 g ai/10 a (500 mL product/10 a), and each amount of dilution water was 150 L/10 a.
A mulch-sheet for agricultural use was spreaded on soil, and planting holes for settlement (diameter: about 5 cm) were made, and then, the spray solution prepared in the above was sprayed onto the planting holes such that the amount of treated active ingredient was 0.0625 g/m^2 (150 L/10 a) in the case of the spray solution containing the active ingredient at 62.5 g ai/10 a, 0.125 g/m^2 (150 L/10 a) in the case of the spray solution containing the active ingredient at 125 g ai/10 a, and 0.25 g/m^2 (150 L/10 a) in the case of the spray solution containing the active ingredient at 250 g ai/10 a, followed by air-drying. Then, seedlings of Chinese cabbage (cultivar: Harebutai 65) grown for 4 weeks in a cell tray (128 holes/nursery box) were planted such that 19 seedlings were planted in one test plot having an area of 2.4 m^2 with two replications.
as §1
In a field covered with a mulch-sheet for agricultural use, seedlings of Chinese cabbage (cultivar: Harebutai 65) grown in a cell tray were planted, in the same manner as in Example 4, and foliage application was performed with a sprayer by spraying the spray solution of streptomycin prepared in (1) (spraying amount per application: 300 L/10 a) twice (27 days and 48 days after the planting of the seedlings).
The degree of disease incidence was examined for all the plants in each test plot 64 days after the start of the test, and the disease severity and the disease control value were evaluated. Incidentally, the disease severity and the disease control value were obtained in the same manner as described above.

[4] abbreviates: 250 g ai/10 a, 150 L/10a onto cultivation soil, Musou, Average of replications.
[5] abbreviates: 62.5 g ai/10 a, 150 L/10 a onto planting holes, Harebutai 65, Average.
The mark [6] stands for this setting: 125 g ai/10 a, 150 L/10 a onto planting holes, Harebutai 65, Average.
Setting [7] is: 250 g ai/10 a, 150 L/10 a onto planting holes, Harebutai 65, Average.
[8] abbreviates: 250 g ai/10 a, 150 L/10 a onto planting holes, Harebutai 65, single replications I-II.
[9] abbreviates: 1/1000 dilution, foliage application twice, Musou, Average of replications.
The mark [10] stands for this setting: 1/1000 dilution, foliage application twice, Harebutai 65, Average.

As for `O=[N+]([O-])c1cc(C(F)(F)F)c(Cl)c([N+](=O)[O-])c1Nc1ncc(C(F)(F)F)cc1Cl` [Fluazinam, 3-chloro-N-(3-chloro-5-trifluoromethyl-2-pyridyl)-alpha,alpha,alpha-trifluoro-2,6-dinit ro-p-toluidine], the Disease incidence rate in assay [1] (setting [4]) is 13.3; in assay [1] (250 g ai/10 a, 150 L/10a sprayed onto cultivation soil before mulch-sheet, cultivar Musou, single replications I-III) it was 16.7 and 13.3 and 10.0; in assay [3] (setting [5]) it was 44.7; in assay [3] (62.5 g ai/10 a, 150 L/10 a onto planting holes, cultivar Harebutai 65, single replications I-II), 36.8 and 52.6; in assay [3] (setting [6]) it was 36.1; in assay [3] (setting [7]), 31.2. Moreover, the Disease incidence rate in assay [3] (setting [8]) was 23.5 and 38.9. For the same compound, the Disease severity is 6.4 in assay [1] (setting [4]); 5.0 and 8.3 and 5.8 in assay [1] (250 g ai/10 a, 150 L/10a onto cultivation soil, Musou, single replications I-III); 13.8 in assay [3] (setting [5]); 9.2 and 18.4 in assay [3] (62.5 g ai/10 a, 150 L/10 a onto planting holes, Harebutai 65, single replications I-II); 10.5 in assay [3] (setting [6]); 8.5 in assay [3] (setting [7]). In assay [3] (setting [8]), the Disease severity is 5.9 and 11.1. Moreover, the Disease control value in assay [1] (250 g ai/10 a, 150 L/10a onto cultivation soil, Musou) was 81.7; in assay [3] (62.5 g ai/10 a, 150 L/10 a onto planting holes, Harebutai 65), 56.3; in assay [3] (125 g ai/10 a, 150 L/10 a onto planting holes, Harebutai 65), 66.8; in assay [3] (250 g ai/10 a, 150 L/10 a onto planting holes, Harebutai 65) it was 73.1. Also, in assay [1], the “Control effect on Chinese cabbage soft rot (in words)” value is on record as “a control effect on Chinese cabbage soft rot was observed”. For the same compound, the “Growing state of Erwinia carotovora (formed colonies)” value in assay [2] (Active ingredient concentration 100 ppm) is listed as “+, +”; in assay [2] (Active ingredient concentration 500 ppm), “+, +”; in assay [2] (Active ingredient concentration 1000 ppm), “±, ±”. Moreover, the “Growth inhibition of Erwinia carotovora (in words)” value in assay [2] (active ingredient concentration of 1000 ppm, direct application) is “did not inhibit the growth”. The “Control effect on Chinese cabbage soft rot compared with foliage application of streptomycin (in words)” value in assay [3] (Table 4 test, moderate incidence conditions, even at 62.5 g ai/10 a or 125 g ai/10 a) is “a higher control effect”.
With `[H]/N=C(/N)N[C@H]1[C@H](O)[C@@H](O)[C@H](O[C@@H]2O[C@@H](C)[C@](O)(C=O)[C@H]2O[C@@H]2O[C@@H](CO)[C@H](O)[C@@H](O)[C@@H]2NC)[C@@H](N/C(N)=N\[H])[C@@H]1O` [Streptomycin, streptomycin], the Disease incidence rate in assay [1] (setting [9]) is 60.0; in assay [3] (1/1000 dilution, foliage application 300 L/10 a twice (27 and 48 days), Harebutai 65, single replications I-II) it was 44.4 and 63.2; in assay [3] (setting [10]), 53.8. The Disease severity in assay [1] (setting [9]) is 37.8; in assay [3] (setting [10]) it was 14.9; in assay [3] (1/1000 dilution, foliage application twice, Harebutai 65, single replications I-II), 13.9 and 15.8. Further, the Disease control value in assay [1] (1/1000 dilution, foliage application twice, Musou) was 0; in assay [3] (1/1000 dilution, foliage application twice, Harebutai 65), 52.8. In addition, the “Control effect on Chinese cabbage soft rot (in words)” value in assay [1] was “not observed at all”. The “Growing state of Erwinia carotovora (formed colonies)” value in assay [2] (Active ingredient concentration 1 ppm) is “−, −”; in assay [2] (Active ingredient concentration 10 ppm) it was “−, −”.
